Experimental findings from ChEMBL document CHEMBL2311338, “On the preparation of indoxyl red from indican and some new characteristics” (Bioorg Med Chem Lett, 2013) are described below.

Test [1] is described as follows: Antiproliferative activity against human lung cancer cells. In kind it is functional, cell-based. The note with it: Cancer cell lines.
For another test, the system named is MCF7. The experiment in a line: Antiproliferative activity against human MCF7 cells. In kind it is functional, cell-based.
A short description of test [2]: Antiproliferative activity against human leukemia cells. In kind it is functional, cell-based. The note with it: Leukemia cell.
The test system of the next test is SNU-638. Description: Antiproliferative activity against human SNU638 cells. In kind it is functional, cell-based.
The species entered for test [3] is Mus musculus. Description: Anticancer activity against 2 x 10^5 cells mouse NSF202 cells assessed as cell growth inhibition at 1.02 uM measured after 2 days by trypan blue exclusion method. In kind it is functional, cell-based.
The nature of test [4]: Anticancer activity against 1 x 10^5 cells mouse NSF202 cells assessed as decrease in viable cells at 1 ug/ml measured after 2 days by trypan blue exclusion method. In kind it is functional.
The species named for test [5] is Mus musculus. Description: Anticancer activity against 1 x 10^5 cells mouse NSF202 cells assessed as cell growth inhibition at 1.02 uM measured after 2 days by trypan blue exclusion method. In kind it is functional, cell-based.

Activity calls are given as the source filed them. The calls are words filed in the database; no cut-off is given here.

With `O=Nc1c(-c2c(O)[nH]c3ccc([N+](=O)[O-])cc23)[nH]c2ccccc12`, the IC50 amounted to 5.4 µM in test [1], 1.4 µM in the test with MCF7, 9.2 µM in test [2] and 1.2 µM in the test on SNU-638.
Take `O=C1C(c2c[nH]c3ccccc23)=Nc2ccccc21` [INDOXYL RED]: the inhibition entry in the test filed under Mus musculus [3] and in the test filed under Mus musculus [5] was “Active” each time. For the same compound, the Activity in test [4] amounted to 40%.
